Laboratory results: patent publication US20090004118A1, “Multifunctional Nanoparticle Conjugates And Their Use” (priority 2004, published 2009)

Columns and labels:
[1] = system: MCF-10A cells (normal breast cells); test: MTT cytotoxicity assay, MCF-10A cells; type: cell-based, Human; settings: compared to cells treated with Paclitaxel-Heparin-FA
tubulin = test: Tubulin polymerization assay; settings: 10 μM paclitaxel equivalent, absorbance 340 nm, FIG. 3
tumor cell cultures = settings: cited from earlier work
factor Xa = test: Factor Xa chromogenic assay (anti Factor Xa heparin activity); type: biochemical; settings: FIG. 2

Compound | IC50 values for inhibition of growth of tumor cell cultures (tumor cell cultures) | also measured
Nc1nc2ncc(CNc3ccc(C(=O)N[C@@H](CCC(=O)O)C(=O)O)cc3)nc2c(=O)[nH]1 [free folate, folic acid] |  | viability of normal cells [1]: relatively low
CC(=O)O[C@H]1C(=O)[C@@]2(C)[C@H]([C@H](OC(=O)c3ccccc3)[C@]3(O)C[C@H](OC(=O)[C@H](O)[C@@H](NC(=O)c4ccccc4)c4ccccc4)C(C)=C1C3(C)C)[C@]1(OC(C)=O)CO[C@@H]1C[C@@H]2O [paclitaxel] |  | ability to induce microtubule assembly (tubulin polymerization) (tubulin): clear increase in absorbance
calicheamicin | low picomolar range | 
dynemicin | low picomolar range | 
esperamicin | low picomolar range | 
heparin |  | bioactivity measured by factor Xa chromogenic assay (factor Xa): 179 IU/mg
